# Test system: P-phenyl-quinone induced abdominal constriction in DBA/2 mice
# Test: P-phenyl-quinone induced mouse abdominal constriction (MAC) assay
# Assay type: in vivo
# Conditions: paracetamol alone at 50 mg/kg and 150 mg/kg, po
# Description: The method is based on that described by Siegmund, Cadmus and Lu in “A Method for Evaluating both Non-Narcotic and Narcotic Analgesics” Proc. Soc. Exp. Biol. Med., 95: 729–731 (1957)).
# DBA/2 mice were housed 20 per cage in a temperature and humidity controlled environment on a 12:12 hour light-dark cycle for five days with food and water ad libitum before testing. […] Ten animals were randomly allocated to each drug group and experimental designs were used that allowed complete randomisation of the testing of drug groups. Drugs were suspended in 1% methylcellulose and administered 10 ml/kg po, 60 mins pre-test. Abdominal constriction was induced by i.p. injection of 10 ml/kg P-phenyl-quinone (0.025% in 5% ethanol/water) and the total number of constrictions in a twenty minute period were measured. A constriction is defined as a flattening of the abdomen with extension of the hind limbs. Testing was blind with one experimenter observing five animals. All experiments were performed in accordance with the Animals (Scientific Procedures) Act 1986 and subject to local ethical committee approval.
# For each drug group, the mean % inhibition of constrictions was calculated ((1-(test/control))*100) and appropriate statistics were performed on log-transformed data to test significant differences from vehicle and, in the case of groups receiving drug combinations, each drug alone.
smiles,measurement,value
"CC(=O)Nc1ccc(O)cc1 [Paracetamol, N-acetyl-p-aminophenol]","% inhibition of constrictions, drug alone",small but significant effect

# From patent publication US7199153B2, “Pharmaceutical composition comprising paracetamol and niflumic acid” (SmithKline Beechman, p.l.c., priority 2000, dated 2007)
